Bridge positions count the residues as written; N and C are the ends. Peptide text beside a SMILES is read from it.

One data set relates to MCP-1. Kind of data set: In vitro chemotaxis (trans-well migration) v MCP-1. The class given is cell-based, human. Summed up: (§1)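 Trans-well migration toward IL-8 or MCP-1 placed below, with agent added to THP-1 cells (10^4-10^6) in the top well and incubation at 37° C (e.g. 4 hours). MTT absorbance at 595 nm, interpolated on a cell standard curve, gives migrated cell numbers; TGFβ-type negative control and cytotoxicity check included.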

The next data set relates to IL-8. The experiment in a line: In vitro chemotaxis, inhibition v IL-8. It is filed as cell-based, human. Also noted: concentration or dose not given beside the values. The method in brief:
as §1

Data set [1] is described as follows: Half-life in rat plasma in vitro. The class given is in vitro ADME. Particulars: for half-life: read-out: T ½ rat plasma in vitro (converted).
A short description of another data set: Half-life in rat in vivo. The settings on record: read-out: T ½ rat in vivo.

In the data set on MCP-1, `CC[C@H](C)[C@@H]1NC(=O)[C@H](Cc2c[nH]c3ccccc23)NC(=O)[C@H](CCCCN)NC(=O)[C@H](CCC(N)=O)NC(=O)[C@H](CCCCN)NC(=O)[C@@H]2CCCN2C(=O)[C@H](CC(=O)O)NC(=O)[C@H](CC(C)C)NC(=O)[C@@H](N)CSSC[C@@H](C(N)=O)NC(=O)[C@H](CCC(N)=O)NC1=O` [Example 33, c(Cys-Leu-Asp-Pro-Lys-Gln-Lys-Trp-Ile-Gln-Cys)-NH2] (H-CLDPKQKWIQC-NH2; disulfide 1-11) displayed an EC50 of 20 nM. Further, the “v IL-8 inhibition (%)” value in the data set with IL-8 is recorded as 90.0%. Further, the half-life in data set [1] was greater than 15 h; in “Half-life in rat in vivo” it was 0.1 h.

As for `CC(C)(C)OC(=O)N[C@@H](Cc1c[nH]c2ccccc12)C(=O)NCC(=O)NC1CCC(=O)NC1=O` (stereo partly drawn) [Example 163, BOC-Trp-Gly-α-aminoglutaramide], in the data set with MCP-1, the midpoint of the response, the EC50, lay at 20 nM. In addition, the “v IL-8 inhibition (%)” value with IL-8 is 105.7%. In addition, the half-life in data set [1] is 6.1 h.

For `CC(C)[C@H](NC(=O)[C@H](Cc1c[nH]c2ccccc12)NC(=O)OC(C)(C)C)C(=O)NC1CCC(=O)NC1=O` (stereo partly drawn) [Example 164, BOC-Trp-Val-α-aminoglutaramide], a half-maximal response in the data set on MCP-1 (EC50) required 20 nM. Also, in the data set on IL-8, the “v IL-8 inhibition (%)” value was found to be 104.4%. In addition, the results for the half-life (in data set [1]; in the data set “Half-life in rat in vivo”) were 11.1 h and 0.55 h, respectively.

`CC(C)(C)OC(=O)N[C@@H](Cc1c[nH]c2ccccc12)C(=O)NCCC(=O)NC1CCC(=O)NC1=O` (stereo partly drawn) [Example 165, BOC-Trp-βA1a-α-aminoglutaramide] returned an EC50 with MCP-1 of 5 nM. The “v IL-8 inhibition (%)” value in the data set with IL-8 was found to be 111.5%. In addition, in data set [1], the half-life was 4 h.

Take `CC[C@H](C)[C@@H]1NC(=O)[C@H](Cc2c[nH]c3ccccc23)NC(=O)[C@H](CCCCN)NC(=O)[C@@H](N)CSSC[C@@H](C(N)=O)NC(=O)[C@H](CCC(N)=O)NC1=O` [Example 1, c(Cys-Lys-Trp-Ile-Gln-Cys)-NH2] (H-CKWIQC-NH2; disulfide 1-6): the EC50 with MCP-1 was determined as 12 nM. Further, in the data set on IL-8, the “v IL-8 inhibition (%)” value is given as 86.7%. For the same compound, the half-life is greater than 28 h in data set [1] and 0.317 h in the data set “Half-life in rat in vivo”.

In the data set with MCP-1, “BOC-Tcc-βAla-α-aminoglutaramide [Example 171]” came in with an EC50 of 602 nM. Further, the “v IL-8 inhibition (%)” value in the data set on IL-8 is 84.6%. The “T ½ rat plasma in vitro” value in data set [1] is 8.5 h.

The EC50 is the concentration at which the effect is half-maximal.

The values above are taken from patent publication US20110038885A1, “CHEMOKINE ANALOGS” (priority 2007, published 2011).
